Results reported in patent publication US20190142971A1, “FORMULATION AND DELIVERY OF MODIFIED NUCLEOSIDE, NUCLEOTIDE, AND NUCLEIC ACID COMPOSITIONS” (ModernaTX, Inc., priority 2013, published 2019).

System: Balb-C mice
Assay: Example 117: repeat dose luciferase KC2 LNP IM, IV, live and tissue imaging (Tables 192-200)
Type: in vivo
Details: luciferase mRNA in PBS, IM 2.50 mg/kg
Description: “TM-2” means the groups were administered with 2 doses, administered 24 hours apart, “IV” means intravenous administration, “TV-1” means the groups were administered a single dose tail vein injection and “TV-2” means the groups were administered with 2 doses, administered 7 days apart. 2 groups of untreated Balb-C mice (n=3) were also evaluated. Groups 1, 3 and 7 were injected in the right leg and administration was repeated but into the left leg with 24 hours between injections. Groups 2, 4, and 9 were administered the mRNA in the right leg followed by repeat administration in the right leg with 24 hours between injections for Group 2 and 7 days between injections for Groups 4 and 9.
The final lipid molar ratio ranges of DLin-KC2-DMA, DSPC, cholesterol and PEG-DMG for the KC2 LNP are outlined in Table 194. The weight ratio of total lipid to mRNA was 20:1, the mean size was 95 nm (PDI: 0.11), the zeta at pH 7.4 was −1.0 mV and the encapsulation (RiboGreen) was essentially 100%.
Live imaging mice were imaged at 8 hours post-administration of each dose of luciferase modified mRNA and tissue imaging mice imaged 8 post-administration of the final dose of luciferase modified mRNA. Twenty minutes prior to imaging, the mice were injected intraperitoneally with a D-luciferin solution at 150 mg/kg. Animals were then anesthetized and images were acquired with an IVIS Lumina II imaging system (Perkin Elmer). For the tissue imaging mice (Groups 6-9), the mice were dissected twenty minutes after the D-luciferin injection and organs and tissue were subsequently imaged (muscle around injection site, liver and spleen for Groups 6 and 7 and were subsequently imaged the liver and spleen for Groups 8 and 9). Bioluminescence was measured as total flux (photons/second) of the mid-section and the entire mouse (IV administration), the injection site (IM administration), or the entire organ (tissue imaging).

## Luciferase: luciferase mRNA, SEQ ID NO: 14, Cap1, fully modified with 5-methylcytosine and pseudouridine
Dose 1, Dosed Right limb
  Expression (Flux (p/s)): 6.71E+06 p/s
Dose 1, Undosed Left limb
  Expression (Flux (p/s)): 2.28E+05 p/s
Dose 2, Dosed Left limb
  Expression (Flux (p/s)): 1.16E+07 p/s
Dose 2, Undosed Right limb
  Expression (Flux (p/s)): 2.44E+07 p/s
